From US20260306460A1, “COMPOSITION FOR REMOVING AND INHIBITING SENESCENT CELLS, AND USES THEREOF” (LIFECEUTIX CO., LTD., priority 2023, published 2026)

Experiments:
[1] = test system: bleomycin-induced pulmonary fibrosis mice; test: Bleomycin-induced pulmonary fibrosis mice, Example 31, Table 56; type: in vivo, mouse; details: untreated = 100%
Summary of the method: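 Mice with bleomycin-induced pulmonary fibrosis, untreated or given test compound, with vehicle-only controls. Lung tissue collected for RNA extraction and qRT-PCR analysis.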

[2] = test system: HMGN1 secreted from senescent cells; test: HMGN1 secretion (ELISA) from doxorubicin-induced senescent cells, Example 17; type: cell-based, human; details: senescent untreated = 100%; 30 μM; 90 μM for LX-5211, 5433, 6530, 9105, 9118, 9321, 9602; 2.4 mM for LX-9336
senescent A549 cells = test: Viability of senescent A549 cells (CellTiter-Glo), Example 18, Table 15; details: doxorubicin-induced senescent A549 cells, 0 μM = 100%
Description: Senescence-induced cancer cells treated with doxorubicin were treated with the test compound at designated concentrations, and cell viability was measured using the CellTiter-Glo Luminescent Cell Viability Assay (Promega).

[3] = test system: carbon tetrachloride-induced liver fibrosis mice; test: Carbon tetrachloride-induced liver fibrosis mice, Example 31, Table 57; type: in vivo, mouse; details: CCl4-induced liver fibrosis mice, untreated = 100%
Summary of the method: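 Mice with induced hepatic fibrosis received either the test compound or, as controls, an equal volume of vehicle solution alone. Once dosing ended, liver tissue was harvested and total RNA was isolated. cDNA was synthesized from this RNA, and quantitative RT-PCR was run on it to measure hepatic mRNA levels of the fibrosis- and senescence-related genes.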

naturally aged mice = test: Anti-aging evaluation in naturally aged mice, Example 31, Table 55; type: in vivo, mouse; details: for Femur Ctsk mRNA / Kidney Agtr1a mRNA / Liver IL6 mRNA / Liver MMP3 mRNA / Liver p16 mRNA / Open Field Test Time in Center: untreated = 100%; for Heart Sur2a mRNA / Joint Col2a1 mRNA / Skin Col1a1 mRNA / Skin SDF1 mRNA: untreated = 1.0; for Muscle Mass: untreated 0.64 g; for Fat Mass: untreated 0.82 g; for Cataract incidence: untreated 83%;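 for all read-outs here: Vehicle-dosed control mice received solution alone at matching volume, values compare test-compound-treated aged mice against that control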
senescent cells = test: Viability of senescent cells (CellTiter-Glo), Example 17, Table 13; details: doxorubicin-induced senescent cells, 0 μM = 100
Description: Cells induced to undergo senescence by doxorubicin treatment were treated with test compound at designated concentrations and measured using the CellTiter-Glo Luminescent Cell Viability Assay (Promega).

[4] = test system: HMGN1 secreted from senescent A549 cells; test: HMGN1 secretion (ELISA) from senescent A549 cells, Example 18, Table 14; type: cell-based, human; details: doxorubicin-senescent A549, without test compound (DMSO) = 100%; 30 μM (LX-5211, LX-5433, LX-6530, LX-6800, LX-9105, LX-9118, LX-9131, LX-9136, LX-9302, LX-9321, LX-9565, LX-9602 at 90 μM; LX-9336 at 2.4 mM)
Description: On the other hand, in cancer cells treated with doxorubicin, where senescence was induced, the amount of HMGN1 measured under conditions where cells were not treated with the test compound was calculated as 100%, and the amount of HMGN1 was measured under conditions where the senescent cancer cells were treated with the test compound.

[5] = test system: naturally aged C57BL6J mice; test: Geriatric depression and anxiety in aged mice, Example 21-8; type: in vivo, mouse; details: aged mice
From the text: The amount of senescent-associated secretory factor (SASP) in serum and tissues collected from mice of Examples 21-5 and 21-6 was reduced by treatment with LX-5701, LX-2101, or LX-2102. It was confirmed that removing senescent cells, which increase with aging in mice, and effectively reducing the amount of senescent-associated secretory factor (SASP) can improve symptoms of geriatric depression and anxiety.

[6] = test system: obesity-induced aged C57BL6J mice; test: Anxiety, depression, lethargy (open field test) in obesity-aged mice, Example 23-4, Table 44; type: in vivo, mouse; details: obesity-aged mice
Description: 15-week-old male C57BL6J mice (The Jackson Laboratory) were induced to obesity by a high-fat diet using the same method as in Example 9-1 WO2023-085787 A1. After acclimation to the experimental environment for one week, the mice were randomly assigned to experimental and control groups. […] LX-3002 was mixed in distilled water with 4% DMSO, 30% PEG300, and 5% Tween80 and administered orally at a concentration of 10 mg/kg daily for 21 days. LX-5701 was mixed in PBS and administered orally at a concentration of 360 mg/kg daily for 21 days. LX-6807 was mixed in saline and administered intraperitoneally at a concentration of 1 mg/kg daily for 21 days. The control group received only the solution in the same volume. After the end of drug administration, the methods described in each example below were performed.
It was determined that anxiety and depression caused by obesity are not causally related to increased body weight, but rather are caused by the accumulation of senescent cells. Accordingly, an activity assessment (open field test) was performed using the same method as in Example 7-7 of WO2023-085787 A1 to analyze lethargy caused by anxiety and depression caused by obesity in mice. The table below quantitatively represents activity, a criterion for assessing lethargy due to anxiety and depression, under conditions in which aging was induced by obesity and the test compound was not administered or was administered. The activity assessment after obesity-induced aging was calculated as 100% and compared with the activity assessment after test compound treatment.

[7] = MST; described in WO2021183908A1; cited from earlier work

Row | Compound | HMGN1 [2] | Survival (%) (senescent A549 cells; 1.1 μM) | Survival (%) (senescent A549 cells; 10 μM) | Survival (%) (senescent A549 cells; […]) | Survival (%) (senescent cells; 1.1 μM) | Survival (%) (senescent cells; 10 μM) | Survival (%) (senescent cells; 30 μM) | Survival (%) (senescent cells; […]) | HMGN1 [4] | Survival (%) (senescent A549 cells; 30 μM) | Kd [7] | other results
1 | COC[C@]1(CO)C(=O)[C@H]2CC[N@]1[C@H](C)C2 [LX-5731, (1R,2R,4S,6R)-2-(hydroxymethyl)-2-(methoxymethyl)-6-methylquinuclidin-3-one] | 235% | 94.4% | 30.6% | 83.1% | 98.8% | 48.2% | 11.7% | 89.8% | 307% |  |  | Lung p16 mRNA [1]: 69 (±3.7) %; Col1a1 mRNA [1]: 62 (±13.8) %; Liver p16 mRNA [3]: 60 (±6.5) %; Col1a1 mRNA [3]: 64 (±10.4) %; Femur Ctsk mRNA (naturally aged mice): 44%; Heart Sur2a mRNA (naturally aged mice): 2.5 fold; Joint Col2a1 mRNA (naturally aged mice): 2.7 fold; Kidney Agtr1a mRNA (naturally aged mice): 49%; Liver IL6 mRNA (naturally aged mice): 42%; Liver MMP3 mRNA (naturally aged mice): 77%; Liver p16 mRNA (naturally aged mice): 58%; Open Field Test Time in Center (naturally aged mice): 237%; Skin Col1a1 mRNA (naturally aged mice): 2.3 Fold; Skin SDF1 mRNA (naturally aged mice): 2.0 fold; Muscle Mass (naturally aged mice): 0.71 g; Fat Mass (naturally aged mice): 1.01 g; Cataract incidence (naturally aged mice): 72%
2 | CCCCCCCCCCCCCCCCCCCC(=O)N[C@H]1CC[C@@]2(C)[C@@H](C1)C[C@@H](O)[C@@H]1[C@@H]2C[C@H](O)[C@]2(C)[C@@H]([C@H](C)CCC(=O)O)CC[C@@H]12 [LX-9343, Icomidocholic acid] | 305% | 103.7% | 74.4% | 104.0% | 101.2% | 74.2% | 30.5% | 84.2% | 274% | 11.9% |  | 
3 | CCNCc1nc2c(O)c(Cl)cc(Cl)c2c(=O)n1C [LX-9421] | 201% | 102.9% | 62.3% | 83.3% | 92.1% | 67.9% | 25.9% | 89.3% | 284% | 20.7% |  | Lung p16 mRNA [1]: 35 (±1.6) %; Col1a1 mRNA [1]: 40 (±2.0) %; Liver p16 mRNA [3]: 59 (±5.4) %; Col1a1 mRNA [3]: 34 (±3.7) %; Femur Ctsk mRNA (naturally aged mice): 44%; Heart Sur2a mRNA (naturally aged mice): 2.1 fold; Joint Col2a1 mRNA (naturally aged mice): 2.8 fold; Kidney Agtr1a mRNA (naturally aged mice): 46%; Liver IL6 mRNA (naturally aged mice): 41%; Liver MMP3 mRNA (naturally aged mice): 32%; Liver p16 mRNA (naturally aged mice): 57%; Open Field Test Time in Center (naturally aged mice): 222%; Skin Col1a1 mRNA (naturally aged mice): 2.3 Fold; Skin SDF1 mRNA (naturally aged mice): 2.6 fold; Muscle Mass (naturally aged mice): 0.78 g; Fat Mass (naturally aged mice): 0.99 g; Cataract incidence (naturally aged mice): 54%
4 | CN(CCOc1ccc(CC2SC(=O)NC2=O)cc1)c1ccccn1 (stereo not drawn) [LX-9423, Rosiglitazone] | 227% | 82.1% | 39.8% | 78.3% | 79.5% | 25.4% | 8.7% | 71.8% | 239% | 3.0% |  | amount of SASP, p16, SA-β-gal, lipofuscin [5]: reduced; symptoms of geriatric depression and anxiety [5]: improved; geriatric depression [6]: similarly improving geriatric depression
5 | CCO[C@@H](Cc1ccc(OCCn2c(C)ccc2-c2ccc(SC)cc2)cc1)C(=O)[O-].CCO[C@@H](Cc1ccc(OCCn2c(C)ccc2-c2ccc(SC)cc2)cc1)C(=O)[O-].[Mg+2] [LX-9717, Saroglitazar Magnesium] | 226% | 94.6% | 75.4% | 87.6% | 101.2% | 73.5% | 21.5% | 92.7% | 231% | 10.4% |  | 
6 | CC(C)(C)OC(=O)CCN1C(=O)c2ccccc2C1=O [QW-011] |  |  |  |  |  |  |  |  |  |  | 926 nM | 
7 | CC(C)OC(=O)CCCN1C(=O)c2ccccc2C1=O [QW-017] |  |  |  |  |  |  |  |  |  |  | 399 nM | 
8 | CC(C)(C)OC(=O)C(C)(C)N1C(=O)c2ccccc2C1=O [QW-020] |  |  |  |  |  |  |  |  |  |  | 2140 nM | 
9 | CC(C(=O)OC(C)(C)C)N1C(=O)c2ccccc2C1=O (stereo not drawn) [QW-023] |  |  |  |  |  |  |  |  |  |  | 1780 nM | 
10 | CC(C)(C)OC(=O)CCCCCN1C(=O)c2ccccc2C1=O [QW-029] |  |  |  |  |  |  |  |  |  |  | 2100 nM | 
11 | CC(C)(C)OC(=O)C(N1C(=O)c2ccccc2C1=O)C(C)(C)C (stereo not drawn) [QW-034] |  |  |  |  |  |  |  |  |  |  | 979 nM | 
12 | CCC(C)C(C(=O)OC(C)(C)C)N1C(=O)c2ccccc2C1=O (stereo not drawn) [QW-050] |  |  |  |  |  |  |  |  |  |  | 2430 nM | 
13 | Batiraxcept [LX-6982] | 234% | 90.9% | 77.8% | 88.9% | 95.1% | 74.6% | 10.5% | 86.8% | 306% | 6.9% |  | 
14 | Farletuzumab [LX-7621] | 304% | 91.5% | 69.7% | 78.4% | 86.3% | 78.2% | 50.2% | 82.1% | 237% | 14.4% |  | 
15 | Sulforadex [LX-7104] | 287% | 103.3% | 58.7% | 81.2% | 88.5% | 45.7% | 2.8% | 75.7% | 246% | 18.1% |  | 
